For this test, the system named is mouse embryonic teratocarcinoma F9 cells. The test can be described thus: differentiation test on mouse embryonic teratocarcinoma cells (F9), secretion of plasminogen activator. The following applies: for AC50: concentration of the test product which produces half of the maximum amount of plasminogen activator secreted; for RAR-agonist character concluded from F9 differentiation results: conclusion drawn from the F9 AC50 results. The test is classed as cell-based. From the text: Results of differentiation tests on mouse embryonic teratocarcinoma cells (F9) to identify the RAR-agonist molecules as described in Skin Pharmacol. 3, pp. 256-267, 1990.
After treatment with the compounds of the examples cited in the following table, the mouse embryonic teratocarcinoma F9 cells differentiate into endodermal cells. This differentiation is characterized by the secretion of the plasminogen activator into the culture medium.
The activity of the product is expressed by the AC50 value representing the concentration of the test product which produces half of the maximum amount of plasminogen activator secreted.

Structures are written as SMILES.

As usually defined, the AC50 is the concentration giving half of the maximal activity seen. A lower AC50 goes with greater potency.

As for `COC(=O)c1ccc(C#CSc2ccc3c(c2)C(C)(C)CCC3(C)C)cc1` [Compound 1, Methyl 4-(5,5,8,8,-tetramethyl-5,6,7,8-tetrahydro-2-nachthylsuphanylethynyl)-benzoate], the concentration at half-maximal activity (AC50) was determined as 20 nM and the “RAR-agonist character concluded from F9 differentiation results” value is “RAR-agonist”.

For the molecule `CC1(C)CCC(C)(C)c2cc(SC#Cc3ccc(C(=O)O)cc3)ccc21` [Compound 2, 4-(5,5,8,8-Tetramethyl-5,6,7,8-tetrahydro-2-naphthylsuphanylethynyl)benzoic acid], the half-maximal activity concentration (AC50) stood at 1 nM and the “RAR-agonist character concluded from F9 differentiation results” value is “RAR-agonist”.

With `COC(=O)c1ccc(C#C[Se]c2ccc3c(c2)C(C)(C)CCC3(C)C)cc1` [Compound 4, Methyl 4-(5,5,8,8-tetramethyl-5,6,7,8-tetrahydro-2-naphthylselanylethynyl)benzoate], the “RAR-agonist character concluded from F9 differentiation results” value is on record as “RAR-agonist”. For the same molecule, the AC50 (Mus musculus, F9) worked out at 4 nM.

Consider `CC1(C)CCC(C)(C)c2cc([Se]C#Cc3ccc(C(=O)O)cc3)ccc21` [Compound 5, 4-(5,5,8,8-Tetramethyl-5,6,7,8-tetrahydro-2-naphthylselanylethynyl)benzoic acid], for which the “RAR-agonist character concluded from F9 differentiation results” value was “RAR-agonist”. In addition, the activity (Mus musculus, F9) was half-maximal at 21 nM (AC50).

`Cc1cc2c(cc1[Se]C#Cc1ccc(C(=O)O)c(O)c1)C(C)(C)CCC2(C)C` [Compound 16, 2-Hydroxy-4-(3,5,5,8,8-pentamethyl-5,6,7,8-tetrahydro-2-naphthylselanylethynyl)benzoic acid]: the “RAR-agonist character concluded from F9 differentiation results” value was “RAR-agonist”. Under “Mus musculus, F9”, this molecule gave a half-maximal activity concentration (AC50) of 33 nM.

Regarding `Cc1cc2c(cc1[Se]C#Cc1ccc(C(=O)O)cn1)C(C)(C)CCC2(C)C` [Compound 18, 6-(3,5,5,8,8-Pentamethyl-5,6,7,8-tetrahydro-2-naphthylselanylethynyl)nicotinic acid], the “RAR-agonist character concluded from F9 differentiation results” value is “RAR-agonist”. Besides, for the setting “Mus musculus, F9”, the AC50 stood at 34 nM.

Values taken from patent US6818666B2, “Bi-aromatic compounds linked via a heteroethylene radical, and pharmaceutical and cosmetic compositions using them” (Galderma Research & Development, priority 1919, dated 2004).
